Assay results reported in article PMC6717862 (Drug Design, Development and Therapy, 2019).

Experiments:
EGFR = EGFR (Homo sapiens, UniProt P00533); assay: In vitro enzymatic activity assay; format: biochemical; details: read-out: EGFR inhibition%, inhibition percentage at 1.0 μM
[1] = hypoxia vs normoxia; cited from earlier work

Sequence of EGFR (P00533 25-1210): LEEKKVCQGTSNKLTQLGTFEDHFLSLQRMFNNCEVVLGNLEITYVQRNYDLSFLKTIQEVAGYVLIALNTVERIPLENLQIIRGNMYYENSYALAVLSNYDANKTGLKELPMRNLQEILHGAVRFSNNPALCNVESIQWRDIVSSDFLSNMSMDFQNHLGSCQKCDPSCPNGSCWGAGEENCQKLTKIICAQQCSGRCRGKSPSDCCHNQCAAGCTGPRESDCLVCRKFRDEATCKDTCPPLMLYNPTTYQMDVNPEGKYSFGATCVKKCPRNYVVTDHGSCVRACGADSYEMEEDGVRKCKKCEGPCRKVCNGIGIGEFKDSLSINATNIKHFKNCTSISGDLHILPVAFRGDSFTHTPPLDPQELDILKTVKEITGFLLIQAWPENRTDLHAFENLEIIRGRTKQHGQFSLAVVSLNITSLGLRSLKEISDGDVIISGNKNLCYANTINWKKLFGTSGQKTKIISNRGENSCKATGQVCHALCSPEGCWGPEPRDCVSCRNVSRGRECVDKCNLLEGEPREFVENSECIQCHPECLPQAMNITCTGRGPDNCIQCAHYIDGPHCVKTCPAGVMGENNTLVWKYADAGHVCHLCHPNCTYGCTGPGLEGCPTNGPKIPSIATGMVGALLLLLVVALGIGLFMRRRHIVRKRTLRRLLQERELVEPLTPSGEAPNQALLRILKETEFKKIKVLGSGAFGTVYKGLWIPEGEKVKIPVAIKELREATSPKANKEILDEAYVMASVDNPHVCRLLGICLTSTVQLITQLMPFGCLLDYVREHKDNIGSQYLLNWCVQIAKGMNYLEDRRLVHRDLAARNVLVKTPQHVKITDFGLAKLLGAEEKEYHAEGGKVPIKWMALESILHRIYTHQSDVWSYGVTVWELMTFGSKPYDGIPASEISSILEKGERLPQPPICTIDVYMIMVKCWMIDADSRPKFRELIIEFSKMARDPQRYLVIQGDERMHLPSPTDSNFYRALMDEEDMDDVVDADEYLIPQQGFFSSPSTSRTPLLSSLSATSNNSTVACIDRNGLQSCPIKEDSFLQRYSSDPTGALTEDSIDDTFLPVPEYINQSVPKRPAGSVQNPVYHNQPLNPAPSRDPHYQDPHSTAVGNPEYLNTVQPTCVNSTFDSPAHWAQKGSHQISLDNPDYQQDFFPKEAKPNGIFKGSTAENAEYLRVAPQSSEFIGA

COc1cc2c(Nc3ccc(OCCn4ccnc4[N+](=O)[O-])cc3)ncnc2cc1OCCCN1CCOCC1 [Compound 16d, 6-Methoxy-7-(3-morpholinopropoxy)-N-(4-(2-(2-nitro-1H-imidazol-1-yl)ethoxy)phenyl)quinazolin-4-amine]
inhibition at 1 µM (EGFR): < 50%

COCCOc1cc2ncnc(Nc3ccc(OCCn4ccnc4[N+](=O)[O-])cc3)c2cc1OCCOC [Compound 16h, 6,7-Bis(2-methoxyethoxy)-N-(4-(2-(2-nitro-1H-imidazol-1-yl)ethoxy)phenyl)quinazolin-4-amine]
inhibition at 1 µM (EGFR): < 50%

COc1cc2ncnc(Nc3ccc(OCCn4ccnc4[N+](=O)[O-])cc3)c2cc1OCCCN1CCOCC1 [Compound 16l, 7-Methoxy-6-(3-morpholinopropoxy)-N-(4-(2-(2-nitro-1H-imidazol-1-yl)ethoxy)phenyl)quinazolin-4-amine]
inhibition at 1 µM (EGFR): < 50%

Cn1c(COP(=O)(NCCBr)NCCBr)cnc1[N+](=O)[O-] [TH-302]
fold more effective in carcinoma hypoxia than in normoxia [1]: 270 fold
